Measurements from patent publication US9815788B2, “Anti-angiogenic compounds” (University College Dublin National University of Ireland, …, priority 2012, dated 2017).
Where a name gives a salt, the structure may show the parent alone.

What was measured:
Assay type in all cases: cell-based, human
[1] = test system: OE33R radio-resistant oesophageal adenocarcinoma cells; assay: Cell number after 24 hours drug treatment (crystal violet absorbance), OE33R; conditions: 10 μM
Method: OE33P radio-sensitive and OE33R radio-resistant oesophageal adenocarcinoma cells were used to test the effects of the compounds 11B HCl, […], 11B CC16 HCl, 11B 471 and 11B 268 on cell number. Cells were maintained in RPMI media supplemented with 10% foetal calf serum, penicillin (100 U/ml) and streptomycin (100 gig/ml). A total of 11.000 or 13,000 cells, in 100 μl media, were seeded per well in 24 well plates and left to incubate for 24 hours, with an additional 150 μl media added after 5 hours. The media was replaced with solutions containing 10 μM of 11B HCl, 11B CC11 HCl, 11B CC16 HCl, 11B 471, 11B 268 or fresh media as a control. Each drug had 6 replicates. After 24 hours of treatment, the cells were fixed with 1% glutaraldehyde for 15 minutes and then stained with crystal violet for 30 minutes. The plates were blotted and dried overnight. The cells were resuspended with 1% TritonX-100 and shaken for 15 minutes. The absorbance was read on a spectrophotometer at 590 nm.
OE33P radiosensitive and OE33R radioresistant cells were used to test the effects of the compound 11B_Z_HCl on toxicity. Cells were maintained in RPMI media supplemented with 10% foetal calf serum, penicillin (100 U/ml) and streptomycin (100 μg/ml). A total of 11,000 cells, in 100 μl media, were seeded per well in 24 well plates and left to incubate for 24 hours, with an additional 150 μl media added after 5 hours. The media was replaced with solutions containing 10 μM of 11B_Z_HCl or fresh media as a control. Each treatment had 6 replicates. After 24 hours of treatment, the cells were fixed with 1% glutaraldehyde for 15 minutes and then stained with crystal violet for 30 minutes. The plates were blotted and dried overnight. The cells were resuspended with 1% TritonX-100 and shaken for 15 minutes. The absorbance was read on a spectrophotometer at 590 nm.

[2] = test system: OE33P radio-sensitive oesophageal adenocarcinoma cells; assay: Quantification of glycolysis (ECAR, Seahorse), OE33P; conditions: 10 μM, 24 hours
Method: (§1) OE33P radio-sensitive and OE33R radio-resistant oesophageal adenocarcinoma cells were used to test the effects of compounds 11B HCl, 11B CC11 HCl, 11B CC16 HCl, 11B 471 and 11B 268 on glycolysis. Cells were maintained in RPMI media supplemented with 10% foetal calf serum, penicillin (100 U/ml) and streptomycin (100 μg/ml). A total of 11,000 or 13,000 cells, in 100 μl media, were seeded per well in 24 well plates and left to incubate for 24 hours, with an additional 150 μl media added after 5 hours. The media was replaced with solutions containing 10 μM of 11B HCl, 11B CC1 HCl, 11B CC16 HCl, 11B 471, 11B 268 or fresh media as a control. Each drug had 6 replicates. After 24 hours of treatment, media was replaced with modified DMEM supplemented with 0.5 mM glucose. Rates of glycolysis were determined using Seahorse Biosciences metabolism technology. The media was disposed and the cells washed with PBS. The cells were fixed with 1% glutaraldehyde for 15 minutes and then stained with crystal violet for 30 minutes. The plates were blotted and dried overnight. The cells were resuspended with 1% TritonX-100 and shaken for 15 minutes. The absorbance was read on a spectrophotometer at 590 nm. Rates of glycolysis were then normalised to cell number.
as §1, with “radiosensitive” for “radio-sensitive and OE33R radio-resistant”, “the compound 11B_ZHCl” for “compounds 11B HCl, 11B CC11 HCl, 11B CC16 HCl, 11B 471 and 11B 268”, “11,000” for “11,000 or 13,000”, “11B_ZHCl” for “11B HCl, 11B CC1 HCl, 11B CC16 HCl, 11B 471, 11B 268”, “treatment” for “drug”, “number. No changes in ECAR were detected in OE33R treated cells.” for “number.”

[3] = test system: OE33R radio-resistant oesophageal adenocarcinoma cells; assay: Quantification of glycolysis (ECAR, Seahorse), OE33R; conditions: 10 μM, 24 hours
Method: as §1
OE33P radiosensitive oesophageal adenocarcinoma cells were used to test the effects of the compound 11B_ZHCl on glycolysis. Cells were maintained in RPMI media supplemented with 10% foetal calf serum, penicillin (100 U/ml) and streptomycin (100 μg/ml). A total of 11,000 cells, in 100 μl media, were seeded per well in 24 well plates and left to incubate for 24 hours, with an additional 150 μl media added after 5 hours. The media was replaced with solutions containing 10 μM of 11B_ZHCl or fresh media as a control. Each treatment had 6 replicates. After 24 hours of treatment, media was replaced with modified DMEM supplemented with 0.5 mM glucose. Rates of glycolysis were determined using Seahorse Biosciences metabolism technology. […] The absorbance was read on a spectrophotometer at 590 nm. […] No changes in ECAR were detected in OE33R treated cells.

[4] = test system: OE33R radio-resistant oesophageal adenocarcinoma cells; assay: Surviving fraction (colony formation), OE33R; conditions: 10 μM, 24 hours
Method: (§2) OE33P radio-sensitive and OE33R radio-resistant oesophageal adenocarcinoma cells were used to test the effects of the compounds 11B HCl and 11B CC11 HCl on cell survival. Cells were maintained in RPMI media supplemented with 10% foetal calf serum, penicillin (100 U/ml) and streptomycin (100 μg/ml). Cells were seeded in 6 well plates and left to incubate for 24 hours. The media was replaced with solutions containing 10 μM of 11B HCl, 11B CC11 HCl or fresh media as a control. After 24 hours of treatment, media was replaced. When control colonies had grown sufficiently large, the media was disposed and the cells washed with PBS. The cells were fixed with methanol and stained with crystal violet. The surviving fraction, the ability of the cells to form colonies was then determined.
as §2, with “replaced and cells were subjected to 2Gy radiation.” for “replaced.”, “Surviving” for “The surviving”
as §2, with “hours. The cells were subjected to 2Gy irradiation and the media was” for “hours. The media was”, “crystal violet. Surviving fraction, the” for “crystal violet. The surviving fraction, the”

[5] = treated following 2Gy irradiation
[6] = treated prior to 2Gy irradiation

Question: Which results are given for `Oc1ccccc1/C=C/c1ccc2ccccc2n1` [11B HCl]?
Answer: cell number, measured by % absorbance [1]: did not significantly reduce cell number; extracellular acidification rate (ECAR), a measure of glycolysis [2]: significantly reduce; extracellular acidification rate (ECAR), a measure of glycolysis [3]: significantly reduce; surviving fraction ([4]; no irradiation): significantly reduce; surviving fraction [4, 5]: significantly reduce; surviving fraction [4, 6]: significantly reduce

Question: Which results are given for `C/C(=C\c1ccccc1O)c1ccc2ccccc2n1.Cl` [Compound 11B_CC11_HCl, (E)-2-(2-Quinolin-2-yl-propenyl)-phenol HCl salt]?
Answer: cell number, measured by % absorbance [1]: did not significantly reduce cell number; extracellular acidification rate (ECAR), a measure of glycolysis [2]: significantly reduce; surviving fraction ([4]; no irradiation): significantly reduce; surviving fraction [4, 5]: significantly reduce; surviving fraction [4, 6]: significantly reduce

Question: Which “cell number, measured by % absorbance” value ([1]; HCl salt) does the source give for `Cl.Oc1ccccc1/C=C\c1ccc2ccccc2n1` [Compound 11B_Z_HCl, (Z)-2-(2-(Quinolin-2-yl)vinyl) phenol HCl salt] here?
Answer: did not significantly reduce cell number

Question: What about the “extracellular acidification rate (ECAR), a measure of glycolysis” value (shortened to “extracellular acidification rate (ECAR)”) ([2]; HCl salt) of the same molecule?
Answer: significantly reduces

Question: And the “extracellular acidification rate (ECAR)” value ([2]; listed as 11B_ZHCl, HCl salt)?
Answer: Significantly Reduces

Question: And the “extracellular acidification rate (ECAR)” value [3]?
Answer: No changes
